Converted amounts (≈) assume the structure as drawn.
What was measured:
Assay in all cases: Minimum inhibitory concentration (MIC), serial dilution technique
Type in all cases: cell-based
E. cloacae G-0008 = conditions: Enterobacter cloacae, G0008, 10^6 CFU/ml, 35° C., 18 to 20 hours
Experimental: (§1) Antibacterial activities of the following typical compounds A through E of the present invention represented by formula (I) upon various bacteria were determined by measuring the minimum inhibitory concentrations (MIC) in accordance with the known serial dilution technique. MIC was measured by inoculating 10^6 CFU/ml of each test strain on a Sensitivity Plate Medium N (Nissui Pharmaceutical Co., Ltd.), incubating the plates at 35° C. for 18 to 20 hours and then evaluating the results.

K. pneumoniae PCI602 = conditions: Klebsiella pneumoniae, 10^6 CFU/ml, 35° C., 18 to 20 hours
Experimental: as §1

S. marcescens No. 1 = conditions: Serratia marcescens, 10^6 CFU/ml, 35° C., 18 to 20 hours
Experimental: as §1

P. aeruginosa E-2 = conditions: Pseudomonas aeruginosa, E2, 10^6 CFU/ml, 35° C., 18 to 20 hours
Experimental: as §1

E. hirae ATCC8043 = conditions: Enterococcus hirae, 10^6 CFU/ml, 35° C., 18 to 20 hours
Experimental: as §1

P. vulgaris GN76 = conditions: Proteus vulgaris, 10^6 CFU/ml, 35° C., 18 to 20 hours
Experimental: as §1

C. freundii GN346/16 = conditions: Citrobacter freundii, 10^6 CFU/ml, 35° C., 18 to 20 hours
Experimental: as §1

E. coli NIHJ JC-2 = conditions: Escherichia coli, NIHJJC2, 10^6 CFU/ml, 35° C., 18 to 20 hours
Experimental: as §1

M. morganii 1510/S-1 = conditions: Morganella morganii, 1510/S1, 10^6 CFU/ml, 35° C., 18 to 20 hours
Experimental: as §1

S. aureus 209P JC-1 = conditions: Staphylococcus aureus, 10^6 CFU/ml, 35° C., 18 to 20 hours
Experimental: as §1

S. epidermidis ATCC14990 = conditions: Staphylococcus epidermidis, 10^6 CFU/ml, 35° C., 18 to 20 hours
Experimental: as §1

| Structure (SMILES) | MIC (E. cloacae G-0008) | MIC (K. pneumoniae PCI602) | MIC (S. marcescens No. 1) | MIC (P. aeruginosa E-2) | MIC (E. hirae ATCC8043) | MIC (P. vulgaris GN76) | MIC (C. freundii GN346/16) | MIC (E. coli NIHJ JC-2) | MIC (M. morganii 1510/S-1) | MIC (S. aureus 209P JC-1) | MIC (S. epidermidis ATCC14990) |
| --- | --- | --- | --- | --- | --- | --- | --- | --- | --- | --- | --- |
| CO/N=C(\C(=O)NC1C(=O)N2C(C(=O)[O-])=C(CSc3nc4c[n+](C)ccc4s3)CSC12)c1csc(N)n1 (stereo not shown) [A, 7-{(Z)-2-(2-aminothiazol-4-yl)-2-methoxyiminoacetamido}-3-(5-methylthiazolo[4,5-c]pyridinium-2-yl)thiomethyl-3-cephem-4-carboxylate] | 0.05 µg/mL (≈ 0.0866 µM) | 0.05 µg/mL (≈ 0.0866 µM) | 0.05 µg/mL (≈ 0.0866 µM) | 50 µg/mL (≈ 86.6 µM) | 1.56 µg/mL (≈ 2.7 µM) | 0.39 µg/mL (≈ 0.675 µM) | 0.1 µg/mL (≈ 0.173 µM) | 0.05 µg/mL (≈ 0.0866 µM) | < 0.025 µg/mL | 0.2 µg/mL (≈ 0.346 µM) | 0.2 µg/mL (≈ 0.346 µM) |
| CO/N=C(\C(=O)NC1C(=O)N2C(C(=O)[O-])=C(CSc3nc4c(ccc[n+]4C)s3)CSC12)c1csc(N)n1 (stereo not shown) [B, 7-{(Z)-2-(2-aminothiazol-4-yl)-2-methoxyiminoacetamido}-3-(4-methylthiazolo[4,5-b]pyridinium-2-yl)thiomethyl-3-cephem-4-carboxylate] | 0.2 µg/mL (≈ 0.346 µM) | 0.05 µg/mL (≈ 0.0866 µM) | 0.2 µg/mL (≈ 0.346 µM) | 25 µg/mL (≈ 43.3 µM) | 50 µg/mL (≈ 86.6 µM) | 0.2 µg/mL (≈ 0.346 µM) | 0.1 µg/mL (≈ 0.173 µM) | 0.1 µg/mL (≈ 0.173 µM) | 0.1 µg/mL (≈ 0.173 µM) | 0.2 µg/mL (≈ 0.346 µM) | 0.2 µg/mL (≈ 0.346 µM) |
| C[n+]1ccc2sc(SCC3=C(C(=O)[O-])N4C(=O)C(NC(=O)/C(=N\OCC(=O)O)c5csc(N)n5)C4SC3)nc2c1 (stereo not shown) [C, 7-{(Z)-2-(2-aminothiazol-4-yl)-2-carboxymethoxyiminoacetamido}-3-(5-methylthiazolo[4,5-c]pyridinium-2-yl)thiomethyl-3-cephem-4-carboxylate] | 0.05 µg/mL (≈ 0.0804 µM) | < 0.025 µg/mL | < 0.025 µg/mL | 12.5 µg/mL (≈ 20.1 µM) | 100 µg/mL (≈ 161 µM) | < 0.025 µg/mL | 0.2 µg/mL (≈ 0.322 µM) | 0.05 µg/mL (≈ 0.0804 µM) | < 0.025 µg/mL | 3.13 µg/mL (≈ 5.03 µM) | 3.13 µg/mL (≈ 5.03 µM) |

Now from value to compound:

| MIC (E. cloacae G-0008) | MIC (K. pneumoniae PCI602) | MIC (S. marcescens No. 1) | MIC (P. aeruginosa E-2) | MIC (E. hirae ATCC8043) | MIC (P. vulgaris GN76) | MIC (C. freundii GN346/16) | MIC (E. coli NIHJ JC-2) | MIC (M. morganii 1510/S-1) | MIC (S. aureus 209P JC-1) | MIC (S. epidermidis ATCC14990) | Structure (SMILES) |
| --- | --- | --- | --- | --- | --- | --- | --- | --- | --- | --- | --- |
| 0.2 µg/mL (≈ 0.308 µM) | 0.2 µg/mL (≈ 0.308 µM) | 0.05 µg/mL (≈ 0.077 µM) | 3.13 µg/mL (≈ 4.82 µM) | > 100 µg/mL | 0.1 µg/mL (≈ 0.154 µM) | 0.39 µg/mL (≈ 0.6 µM) | 0.2 µg/mL (≈ 0.308 µM) | 0.05 µg/mL (≈ 0.077 µM) | 3.13 µg/mL (≈ 4.82 µM) | 3.13 µg/mL (≈ 4.82 µM) | C[n+]1ccc2sc(SCC3=C(C(=O)[O-])N4C(=O)C(NC(=O)/C(=N\OC(C)(C)C(=O)O)c5csc(N)n5)C4SC3)nc2c1 (stereo not shown) [D, 7-{(Z)-2-(2-aminothiazol-4-yl)-2-(1-carboxy-1-methylethoxyimino)acetamido}-3-(5-methylthiazolo[4,5-c]pyridinium-2-yl)thiomethyl-3-cephem-4-carboxylate] |
| 0.2 µg/mL (≈ 0.315 µM) | 0.05 µg/mL (≈ 0.0786 µM) | 0.05 µg/mL (≈ 0.0786 µM) | 1.56 µg/mL (≈ 2.45 µM) | > 100 µg/mL | < 0.025 µg/mL | 0.39 µg/mL (≈ 0.613 µM) | 0.2 µg/mL (≈ 0.315 µM) | 0.05 µg/mL (≈ 0.0786 µM) | 1.56 µg/mL (≈ 2.45 µM) | 1.56 µg/mL (≈ 2.45 µM) | C[C@H](O/N=C(\C(=O)NC1C(=O)N2C(C(=O)[O-])=C(CSc3nc4c[n+](C)ccc4s3)CSC12)c1csc(N)n1)C(=O)O (stereo partly drawn) [E, 7-[(Z)-2-(2-aminothiazol-4-yl)-2-{(S)-1-carboxyethoxyimino}acetamido]-3-(5-methylthiazolo[4,5-c]pyridinium-2-yl)thiomethyl-3-cephem-4-carboxylate] |

From patent publication US5464829A, “Cephalosporin derivatives” (Meiji Seika Kaisha Ltd., priority 1992, dated 1995)
